Reference: patent publication US7786141B2 (Vertex Pharmaceuticals Incorporated, priority 2004, dated 2010)

Columns and labels:
[1] = molecular target: T1, M1 muscarinic receptor (Homo sapiens, UniProt P11229); assay: Functional mobilization of intracellular calcium (FLIPR) in M1-CHO cells; format: cell-based; conditions: Table 4; for Emax: 100% efficacy is the maximum response obtained with the Carbachol control; for M1 Activity: modulating M1 receptor
T1 construct: expressed in transfected cells; host or cells: CHO (M1-CHO)
T1 sequence (P11229 1-460): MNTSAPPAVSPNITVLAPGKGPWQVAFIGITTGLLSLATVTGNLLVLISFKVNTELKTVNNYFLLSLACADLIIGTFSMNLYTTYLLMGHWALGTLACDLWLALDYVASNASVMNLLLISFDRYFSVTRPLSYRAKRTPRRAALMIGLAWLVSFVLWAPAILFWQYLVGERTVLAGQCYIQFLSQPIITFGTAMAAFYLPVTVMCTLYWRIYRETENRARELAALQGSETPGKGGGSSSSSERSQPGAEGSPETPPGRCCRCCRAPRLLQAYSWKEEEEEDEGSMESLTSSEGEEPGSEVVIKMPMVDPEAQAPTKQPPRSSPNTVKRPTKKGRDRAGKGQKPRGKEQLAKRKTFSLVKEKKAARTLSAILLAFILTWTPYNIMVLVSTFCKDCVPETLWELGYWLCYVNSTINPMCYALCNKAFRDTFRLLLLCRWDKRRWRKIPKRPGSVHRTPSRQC
How it was run: (§1)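 FLIPR Ca2+ read, ex 488/em 540 nm, 60 s. Recombinant CHO lines (M1 or M4), dye-loaded Fluo-3 AM 60-90 min at 37° C, probenecid 1 mM, pH 7.4. Agonist: compound alone; inhibition: 15 min compound pre-incubation, then carbachol at EC80 for that subtype.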

[2] = molecular target: T2, M4 muscarinic receptor (Homo sapiens, UniProt P08173); assay: Functional mobilization of intracellular calcium (FLIPR) in M4-CHO cells; format: cell-based; conditions: Table 4; for Emax: 100% efficacy is the maximum response obtained with the Carbachol control; for M4 Activity: modulating M4 receptor
T2 construct: expressed in transfected cells; host or cells: CHO (M4-CHO)
T2 sequence (P08173 1-479): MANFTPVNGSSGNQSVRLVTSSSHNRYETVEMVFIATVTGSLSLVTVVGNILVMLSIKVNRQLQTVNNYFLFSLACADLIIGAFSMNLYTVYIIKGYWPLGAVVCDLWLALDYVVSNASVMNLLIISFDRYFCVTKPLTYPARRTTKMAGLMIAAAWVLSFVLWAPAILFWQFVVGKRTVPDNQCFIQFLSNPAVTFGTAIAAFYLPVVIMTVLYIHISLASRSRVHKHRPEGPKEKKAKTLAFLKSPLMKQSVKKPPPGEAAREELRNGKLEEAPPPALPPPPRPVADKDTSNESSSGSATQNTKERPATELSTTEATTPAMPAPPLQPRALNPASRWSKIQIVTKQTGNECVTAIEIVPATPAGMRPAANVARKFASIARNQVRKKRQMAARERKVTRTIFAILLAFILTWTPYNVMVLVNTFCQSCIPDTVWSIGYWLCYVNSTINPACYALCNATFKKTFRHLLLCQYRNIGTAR
How it was run: as §1

## O=C(O)C1CC2(CCN(C3CCCCC3)CC2)c2ccccc21 (stereo not shown) [compound 612]
[1]
  Emax: < 25%
  M1 Activity: x (activity was measured to be greater than 5.0 μM)
[2]
  Emax: 25 to 100%
  M4 Activity: x (activity was measured to be greater than 5.0 μM)

## CC#CC(C)OC(=O)N1CCC(N2CCC3(CC2)CN(C(=O)N(C)C)c2ccc(F)cc23)CC1 (stereo not shown) [compound 614]
[1]
  Emax: 25 to 100%
  M1 Activity: xxx (activity was measured to be less than 2.0 μM)
[2]
  Emax: 25 to 100%
  M4 Activity: xxx (activity was measured to be less than 2.0 μM)

## CCOC(=O)N1CCC(N2CCC3(CC2)CN(C(C)=O)c2cccc(C(F)(F)F)c23)CC1 [compound 615]
[1]
  Emax: 25 to 100%
  M1 Activity: xxx (activity was measured to be less than 2.0 μM)
[2]
  Emax: < 25%
  M4 Activity: xx (activity was measured to be between 2.0 μM and 5.0 μM)

## CC(=O)NC1CCC2(CCN(CC3CCOCC3)CC2)c2ccccc21 (stereo not shown) [compound 616]
[1]
  Emax: > 100%
  M1 Activity: xxx (activity was measured to be less than 2.0 μM)
[2]
  Emax: 25 to 100%
  M4 Activity: x (activity was measured to be greater than 5.0 μM)

## CN(C)C(=O)N[C@H]1CCC2(CCN(C3CCCCCC3)CC2)c2ccccc21 [compound 617]
[1]
  Emax: 25 to 100%
  M1 Activity: xx (activity was measured to be between 2.0 μM and 5.0 μM)
[2]
  Emax: > 100%
  M4 Activity: xxx (activity was measured to be less than 2.0 μM)

## CCC=CCOC(=O)N1C2CCC1CC(N1CCC3(CC1)CN(C(C)=O)c1ccccc13)C2 (stereo not shown) [compound 618]
[1]
  Emax: 25 to 100%
  M1 Activity: xxx (activity was measured to be less than 2.0 μM)
[2]
  Emax: 25 to 100%
  M4 Activity: xxx (activity was measured to be less than 2.0 μM)

## CN(C)C(=O)N1CC2(CCN(C3CCN(C(=O)c4ccon4)CC3)CC2)c2cc(F)ccc21 [compound 619]
[1]
  Emax: 25 to 100%
  M1 Activity: xx (activity was measured to be between 2.0 μM and 5.0 μM)
[2]
  Emax: 25 to 100%
  M4 Activity: xxx (activity was measured to be less than 2.0 μM)

## CCCC#CCOC(=O)N1CCC(N2CCC3(CC2)CN(C(C)=O)c2ccccc23)CC1 [compound 620]
[1]
  Emax: 25 to 100%
  M1 Activity: x (activity was measured to be greater than 5.0 μM)
[2]
  Emax: < 25%
  M4 Activity: x (activity was measured to be greater than 5.0 μM)

## O=C1CCCCC1N1CC2(CCN(C3CC4CCC(C4)C3)CC2)c2cc(F)ccc21 (stereo not shown) [compound 621]
[1]
  Emax: 25 to 100%
  M1 Activity: xx (activity was measured to be between 2.0 μM and 5.0 μM)
[2]
  Emax: 25 to 100%
  M4 Activity: xxx (activity was measured to be less than 2.0 μM)

## Cc1ccc2c(c1)C1(CCN(CC3CC4CCC(C4)C3)CC1)CN2 (stereo not shown) [compound 622]
[1]
  Emax: < 25%
  M1 Activity: x (activity was measured to be greater than 5.0 μM)
[2]
  Emax: < 25%
  M4 Activity: x (activity was measured to be greater than 5.0 μM)

## CC(=O)N1CC2(CCN(C3CC4CCC(C3)N4C(=O)O[C@H]3CCOC3)CC2)c2ccccc21 (stereo partly shown) [compound 623]
[1]
  Emax: 25 to 100%
  M1 Activity: xxx (activity was measured to be less than 2.0 μM)
[2]
  Emax: 25 to 100%
  M4 Activity: xxx (activity was measured to be less than 2.0 μM)

## CCC(C)(C)C1CCC(N2CCC3(CC[C@H](NC(C)=O)c4ccccc43)CC2)CC1 (stereo partly shown) [compound 624]
[1]
  Emax: 25 to 100%
  M1 Activity: xxx (activity was measured to be less than 2.0 μM)
[2]
  Emax: < 25%
  M4 Activity: x (activity was measured to be greater than 5.0 μM)

## CN(C)C(=O)N1CC2(CCN(C[C@@H]3CCN(C(=O)OCC(F)F)C3)CC2)c2cc(F)ccc21 [compound 625]
[1]
  Emax: 25 to 100%
  M1 Activity: xxx (activity was measured to be less than 2.0 μM)
[2]
  Emax: > 100%
  M4 Activity: xxx (activity was measured to be less than 2.0 μM)

## CCOC(=O)N1CCC(N2CCC3(CC2)CN(C(C)=O)c2ccccc23)CC1 [compound 626]
[1]
  Emax: 25 to 100%
  M1 Activity: xxx (activity was measured to be less than 2.0 μM)
[2]
  Emax: 25 to 100%
  M4 Activity: xxx (activity was measured to be less than 2.0 μM)

## CS(=O)(=O)N[C@H]1CCC2(CCN(CC3CC4C=CC3C4)CC2)c2ccccc21 (stereo partly shown) [compound 627]
[1]
  Emax: 25 to 100%
  M1 Activity: xxx (activity was measured to be less than 2.0 μM)
[2]
  Emax: 25 to 100%
  M4 Activity: xxx (activity was measured to be less than 2.0 μM)

## COC(=O)N1CCCC(N2CCC3(CC2)CN(C(=O)N(C)C)c2ccc(F)cc23)CC1 (stereo not shown) [compound 628]
[1]
  Emax: 25 to 100%
  M1 Activity: xxx (activity was measured to be less than 2.0 μM)
[2]
  Emax: 25 to 100%
  M4 Activity: xxx (activity was measured to be less than 2.0 μM)

## CCOC(=O)N1CCC(N2CCC3(CC2)CN(C(C)=O)c2c(-c4ccc(C(N)=O)cc4)cccc23)CC1 [compound 629]
[1]
  Emax: 25 to 100%
  M1 Activity: xx (activity was measured to be between 2.0 μM and 5.0 μM)
[2]
  Emax: 25 to 100%
  M4 Activity: xx (activity was measured to be between 2.0 μM and 5.0 μM)

## CCCOC(=O)N1CCC(N2CCC3(CC2)CN(C(C)=O)c2ccc(F)cc23)C1 (stereo not shown) [compound 632]
[1]
  Emax: < 25%
  M1 Activity: x (activity was measured to be greater than 5.0 μM)
[2]
  Emax: < 25%
  M4 Activity: x (activity was measured to be greater than 5.0 μM)

## CN(C)C(=O)N1CC2(CCN(C3CCN(C(=O)CCC(F)(F)F)CC3)CC2)c2cc(F)ccc21 [compound 633]
[1]
  Emax: 25 to 100%
  M1 Activity: xx (activity was measured to be between 2.0 μM and 5.0 μM)
[2]
  Emax: < 25%
  M4 Activity: x (activity was measured to be greater than 5.0 μM)

## CC(=O)N1CC2(CCN(C3CCN(C(=O)OC(C)C)C3)CC2)c2cc(F)ccc21 (stereo not shown) [compound 634]
[1]
  Emax: < 25%
  M1 Activity: x (activity was measured to be greater than 5.0 μM)
[2]
  Emax: < 25%
  M4 Activity: x (activity was measured to be greater than 5.0 μM)

## CC(=O)N[C@H]1CCC2(CCN(CC3CCC3)CC2)c2ccccc21 [compound 636]
[1]
  Emax: 25 to 100%
  M1 Activity: xxx (activity was measured to be less than 2.0 μM)
[2]
  Emax: 25 to 100%
  M4 Activity: xxx (activity was measured to be less than 2.0 μM)

## CC#CCOC(=O)N1CC[C@H](CN2CCC3(CC2)CN(C(C)=O)c2ccccc23)C1 [compound 637]
[1]
  Emax: > 100%
  M1 Activity: xxx (activity was measured to be less than 2.0 μM)
[2]
  Emax: 25 to 100%
  M4 Activity: xxx (activity was measured to be less than 2.0 μM)

## CC(=O)N[C@H]1CC2(CCN(C3CCC(C(C)(C)C)CC3)CC2)c2ccccc21 (stereo partly shown) [compound 638]
[1]
  Emax: < 25%
  M1 Activity: x (activity was measured to be greater than 5.0 μM)
[2]
  Emax: < 25%
  M4 Activity: x (activity was measured to be greater than 5.0 μM)

## O=C(N[C@H]1CC2(CCN(CC3CCCCC3)CC2)c2ccccc21)c1ccoc1 [compound 639]
[1]
  Emax: 25 to 100%
  M1 Activity: x (activity was measured to be greater than 5.0 μM)
[2]
  Emax: < 25%
  M4 Activity: x (activity was measured to be greater than 5.0 μM)

## CC(=O)N[C@H]1CC2(CCN(CC3CC4CCC3C4)C2)c2ccc(F)cc21 (stereo partly shown) [compound 640]
[1]
  Emax: 25 to 100%
  M1 Activity: xxx (activity was measured to be less than 2.0 μM)
[2]
  Emax: 25 to 100%
  M4 Activity: xxx (activity was measured to be less than 2.0 μM)
